Several values for one entry are separate records, joined by “and”; a condition that tells them apart may be missing. Equal values may be shown once.
Settings: for mass density: Vibrating tube method; for vapor or sublimation pressure: Closed cell (Static) method

CC(C)C [2-methylpropane]
Fluid (supercritical or subcritical phases)
Settings | mass density [kg/m3]
240 K, 484.1 kPa | 617.68
240 K, 1027.4 kPa | 618.3
240 K, 1538.4 kPa | 618.86
240 K, 2037.8 kPa | 619.41
240 K, 2522.8 kPa | 619.95
240 K, 3029.3 kPa | 620.49
240 K, 3501.9 kPa | 621
240 K, 4038.4 kPa | 621.58
240 K, 4542.1 kPa | 622.1
240 K, 5022.8 kPa | 622.62
240 K, 5522.1 kPa | 623.14
240 K, 5987.3 kPa | 623.62
240 K, 6540.8 kPa | 624.19
240 K, 7010.9 kPa | 624.66
260 K, 517.1 kPa | 595.93
260 K, 947.4 kPa | 596.52
260 K, 1503.8 kPa | 597.28
260 K, 1984.7 kPa | 597.94
260 K, 2532 kPa | 598.66
260 K, 3005.3 kPa | 599.28
260 K, 3472.2 kPa | 599.9
260 K, 4015.9 kPa | 600.6
260 K, 4464.7 kPa | 601.16
260 K, 4915.7 kPa | 601.73
260 K, 5481.6 kPa | 602.44
260 K, 5953.7 kPa | 603.05
260 K, 6532 kPa | 603.75
260 K, 7031.7 kPa | 604.37
280 K, 512.2 kPa | 573.26
280 K, 996 kPa | 574.1
280 K, 1532.9 kPa | 575.01
280 K, 2000.6 kPa | 575.8
280 K, 2508.1 kPa | 576.64
280 K, 2999.4 kPa | 577.44
280 K, 3506 kPa | 578.27
280 K, 4015.2 kPa | 579.09
280 K, 4460.5 kPa | 579.8
280 K, 4938.8 kPa | 580.54
280 K, 5494.5 kPa | 581.39
280 K, 5986.9 kPa | 582.16
280 K, 6507.2 kPa | 582.93
280 K, 6980.4 kPa | 583.64
300 K, 476.5 kPa | 548.51
300 K, 1017.6 kPa | 549.71
300 K, 1462.4 kPa | 550.7
300 K, 1999.9 kPa | 551.86
300 K, 2533.3 kPa | 552.99
300 K, 3021.3 kPa | 554.01
300 K, 3526.2 kPa | 555.05
300 K, 3965.8 kPa | 555.93
300 K, 4482.8 kPa | 556.96
300 K, 4980.2 kPa | 557.93
300 K, 5467.8 kPa | 558.87
300 K, 5953.2 kPa | 559.79
300 K, 6460.3 kPa | 560.72
300 K, 7025.2 kPa | 561.79
320 K, 1063 kPa | 522.78
320 K, 1503.5 kPa | 524.1
320 K, 2072.9 kPa | 525.74
320 K, 2548.7 kPa | 527.08
320 K, 3037.4 kPa | 528.43
320 K, 3521.6 kPa | 529.72
320 K, 4027.5 kPa | 531.05
320 K, 4496.4 kPa | 532.26
320 K, 4946.7 kPa | 533.39
320 K, 5450.3 kPa | 534.62
320 K, 5960.5 kPa | 535.86
320 K, 6511.5 kPa | 537.15
320 K, 6995.3 kPa | 538.27
340 K, 1494.6 kPa | 493.98
340 K, 2007.1 kPa | 496.16
340 K, 2499.6 kPa | 498.13
340 K, 3002.8 kPa | 500.07
340 K, 3503.8 kPa | 501.94
340 K, 4023.8 kPa | 503.83
340 K, 4507.3 kPa | 505.51
340 K, 5017.1 kPa | 507.23
340 K, 5520.7 kPa | 508.89
340 K, 5998.3 kPa | 510.42
340 K, 6512.9 kPa | 512.03
340 K, 6962.7 kPa | 513.39
360 K, 2008.5 kPa | 460.57
360 K, 2503.6 kPa | 463.81
360 K, 2997.5 kPa | 466.82
360 K, 3502.9 kPa | 469.71
360 K, 4027.6 kPa | 472.55
360 K, 4532.2 kPa | 475.11
360 K, 5024.7 kPa | 477.51
360 K, 5482.2 kPa | 479.63
360 K, 6006.8 kPa | 481.96
360 K, 6485.4 kPa | 484.01
360 K, 6987.7 kPa | 486.08
380 K, 2517.9 kPa | 417.11
380 K, 3027.5 kPa | 423.54
380 K, 3511 kPa | 428.79
380 K, 4014.9 kPa | 433.63
380 K, 4487.2 kPa | 437.71
380 K, 4990.6 kPa | 441.69
380 K, 5519.1 kPa | 445.53
380 K, 6019.7 kPa | 448.91
380 K, 6503.3 kPa | 451.96
380 K, 6952.1 kPa | 454.64

Liquid
Settings | mass density [kg/m3] | vapor or sublimation pressure [kPa]
240 K | 617.17 | 40.1
260 K | 595.32 | 94.6
280 K | 572.74 | 197.8
300 K | 548.27 | 368.6
320 K | 521.48 | 632.5
340 K | 491.87 | 1013.7
360 K | 457.33 | 1541.6
380 K | 413.34 | 2250.4

CCCC [butane]
Fluid (supercritical or subcritical phases)
Settings | mass density [kg/m3]
240 K, 486 kPa | 635.96
240 K, 1007.3 kPa | 636.47
240 K, 1510.1 kPa | 636.95
240 K, 2000.1 kPa | 637.42
240 K, 2570.2 kPa | 637.97
240 K, 3029.5 kPa | 638.41
240 K, 3512.2 kPa | 638.87
240 K, 4001.2 kPa | 639.35
240 K, 4487.8 kPa | 639.8
240 K, 5029 kPa | 640.31
240 K, 5540.8 kPa | 640.78
240 K, 5990.8 kPa | 641.21
240 K, 6517.3 kPa | 641.67
240 K, 7115.6 kPa | 642.22
260 K, 481 kPa | 615.74
260 K, 998.4 kPa | 616.36
260 K, 1521.8 kPa | 616.98
260 K, 2020.3 kPa | 617.55
260 K, 2488.3 kPa | 618.09
260 K, 3039.4 kPa | 618.72
260 K, 3506.9 kPa | 619.26
260 K, 3997 kPa | 619.8
260 K, 4494.6 kPa | 620.36
260 K, 5004.2 kPa | 620.91
260 K, 5503.1 kPa | 621.46
260 K, 6003.3 kPa | 622.01
260 K, 6478.7 kPa | 622.54
260 K, 6989.2 kPa | 623.08
280 K, 144.7 kPa | 593.92
280 K, 173.2 kPa | 593.97
280 K, 493.9 kPa | 594.44
280 K, 992 kPa | 595.16
280 K, 1472.7 kPa | 595.86
280 K, 1987.6 kPa | 596.59
280 K, 2465.8 kPa | 597.26
280 K, 2985.5 kPa | 597.98
280 K, 3516.7 kPa | 598.71
280 K, 3974.9 kPa | 599.34
280 K, 4513.6 kPa | 600.07
280 K, 4975 kPa | 600.69
280 K, 5428.9 kPa | 601.3
280 K, 5929.2 kPa | 601.98
280 K, 6499.1 kPa | 602.71
280 K, 7020 kPa | 603.37
300 K, 268.9 kPa | 571.14
300 K, 315.1 kPa | 571.23
300 K, 493.4 kPa | 571.55
300 K, 992.8 kPa | 572.45
300 K, 1491.3 kPa | 573.35
300 K, 2013.4 kPa | 574.26
300 K, 2499.1 kPa | 575.12
300 K, 2964 kPa | 575.92
300 K, 3499.9 kPa | 576.83
300 K, 3992.8 kPa | 577.66
300 K, 4525.1 kPa | 578.55
300 K, 4990.4 kPa | 579.31
300 K, 5543.6 kPa | 580.23
300 K, 5951.1 kPa | 580.88
300 K, 6459.3 kPa | 581.65
300 K, 7089.3 kPa | 582.62
320 K, 515.9 kPa | 546.74
320 K, 1002.9 kPa | 547.89
320 K, 1502.7 kPa | 549.06
320 K, 2011.8 kPa | 550.22
320 K, 2517.1 kPa | 551.36
320 K, 3010.6 kPa | 552.45
320 K, 3523.1 kPa | 553.55
320 K, 4015.6 kPa | 554.6
320 K, 4017.2 kPa | 554.6
320 K, 4513.3 kPa | 555.64
320 K, 4992.8 kPa | 556.63
320 K, 5473.8 kPa | 557.6
320 K, 6031 kPa | 558.74
320 K, 6510.5 kPa | 559.67
320 K, 6982.1 kPa | 560.62
340 K, 761.5 kPa | 519.87
340 K, 791.7 kPa | 519.97
340 K, 989.9 kPa | 520.64
340 K, 1519.5 kPa | 522.33
340 K, 1975.7 kPa | 523.74
340 K, 2514.4 kPa | 525.36
340 K, 3012.7 kPa | 526.82
340 K, 3504.4 kPa | 528.23
340 K, 4034.7 kPa | 529.7
340 K, 4437.7 kPa | 530.79
340 K, 4964.4 kPa | 532.19
340 K, 5471 kPa | 533.51
340 K, 5975.4 kPa | 534.78
340 K, 6451.2 kPa | 535.97
340 K, 7014.5 kPa | 537.36
360 K, 1181.7 kPa | 490.31
360 K, 1215.8 kPa | 490.48
360 K, 1507.5 kPa | 491.85
360 K, 2006.4 kPa | 494.12
360 K, 2493.7 kPa | 496.23
360 K, 2995.1 kPa | 498.32
360 K, 3489.7 kPa | 500.29
360 K, 3993.1 kPa | 502.23
360 K, 4488.7 kPa | 504.06
360 K, 4984.1 kPa | 505.83
360 K, 5504.8 kPa | 507.65
360 K, 5979.4 kPa | 509.32
360 K, 6486.7 kPa | 510.96
360 K, 7012.4 kPa | 512.64
380 K, 1845.2 kPa | 455.88
380 K, 1925.7 kPa | 456.51
380 K, 2007.2 kPa | 457.14
380 K, 2503.7 kPa | 460.77
380 K, 3010.6 kPa | 464.17
380 K, 3502 kPa | 467.25
380 K, 3999.9 kPa | 470.18
380 K, 4508.9 kPa | 473
380 K, 5015.7 kPa | 475.66
380 K, 5511.1 kPa | 478.12
380 K, 6013.8 kPa | 480.51
380 K, 6534.9 kPa | 482.88
380 K, 6978 kPa | 484.82

Liquid
Settings | mass density | vapor or sublimation pressure
240 K | 634.72 kg/m3 and 634.79 kg/m3 | 26.2 kPa and 23.9 kPa
260 K | 615.48 kg/m3 | 59.9 kPa
280 K | 593.89 kg/m3 | 131.5 kPa
300 K | 571.03 kg/m3 | 256.4 kPa
320 K | 546.56 kg/m3 | 454.8 kPa
340 K | 520.07 kg/m3 and 519.84 kg/m3 | 750.5 kPa and 751 kPa
360 K | 490.27 kg/m3 and 490.24 kg/m3 | 1168.5 kPa and 1168.1 kPa
380 K | 455 kg/m3 | 1737.4 kPa
